Experimental data from PubChem BioAssay (NCI).
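Method: 48-hour compound exposure of cells in 96-well plates, five concentrations, linear interpolation of endpoints. The concentration for 50% growth inhibition is given as GI50. TGI: concentration producing complete growth inhibition.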

Key:
Test in all cases: NCI-60 cell line screen, 48 h; in the data active means GI50 below about 0.43 µM; inactive means the rest
[1] = test system: MDA-MB-231 breast
[2] = test system: MDA-MB-435
[3] = test system: DU-145 prostate
[4] = test system: MCF7 breast
[5] = test system: SR leukemia
[6] = test system: SF-539 CNS
[7] = test system: M14 melanoma
[8] = test system: ACHN renal
[9] = test system: HCC-2998 colon
[10] = test system: HOP-62 NSCLC
[11] = test system: SN12C renal
[12] = test system: NCI/ADR-RES ovarian
[13] = test system: OVCAR-5 ovarian
[14] = test system: A549 NSCLC
[15] = test system: HS 578T breast
[16] = test system: NCI-H226 lung
[17] = test system: UACC-62 melanoma
[18] = test system: SF-268 CNS
[19] = test system: SK-OV-3 ovarian
[20] = test system: KM12 colon
[21] = test system: OVCAR-8 ovarian
[22] = test system: MOLT-4 leukemia
[23] = test system: SNB-75 CNS
[24] = test system: SF-295 CNS
[25] = test system: NCI-H23 lung
[26] = test system: MALME-3M melanoma
[27] = test system: CAKI-1 renal
[28] = test system: CCRF-CEM leukemia
[29] = test system: UACC-257 melanoma
[30] = test system: A498 renal
[31] = test system: NCI-H460 lung
[32] = test system: HCT-116 colon
[33] = test system: OVCAR-4 ovarian
[34] = test system: SW-620 colon
[35] = test system: COLO 205 colon
[36] = test system: SK-MEL-28 melanoma
[37] = test system: UO-31 renal
[38] = test system: TK-10 renal
[39] = test system: K-562 leukemia
[40] = test system: HCT-15 colon
[41] = test system: U251 CNS
[42] = test system: SK-MEL-5 melanoma
[43] = test system: HL-60(TB) leukemia
[44] = test system: IGROV1 ovarian
[45] = test system: RPMI-8226 leukemia
[46] = test system: HT29 colon
[47] = test system: LOX IMVI melanoma
[48] = test system: NCI-H522 lung
[49] = test system: BT-549 breast
[50] = test system: HOP-92 NSCLC
[51] = test system: T-47D breast
[52] = test system: SNB-19 CNS
[53] = test system: EKVX NSCLC
[54] = test system: RXF 393 renal
[55] = test system: SK-MEL-2 melanoma
[56] = test system: 786-0 renal
[57] = test system: PC-3 prostate

Oc1ccc(CSc2nnc(-c3cnccn3)o2)c2cccnc12
inactive: GI50 [1] 840 nM | GI50 [3] 472 nM | GI50 [7] 475 nM | GI50 [8] 432 nM | GI50 [9] 697 nM | GI50 [10] 449 nM | GI50 [12] 1890 nM | GI50 [13] 1420 nM | GI50 [16] 1750 nM | GI50 [17] 517 nM | GI50 [18] 453 nM | GI50 [19] 700 nM | GI50 [20] 638 nM | GI50 [22] 488 nM | GI50 [27] 605 nM | GI50 [28] 536 nM | GI50 [30] 2220 nM | GI50 [33] 643 nM | GI50 [34] 445 nM | GI50 [35] 3220 nM | GI50 [36] 711 nM | GI50 [38] 3070 nM | GI50 [44] 812 nM | GI50 [46] 4000 nM | GI50 [53] 505 nM | GI50 [54] 522 nM | GI50 [56] 590 nM
> 32200 nM: TGI [37]
15700 nM: TGI [17]
8560 nM: TGI [49]
11100 nM: TGI [35]
> 29600 nM: TGI [16]
> 85200 nM: TGI [7]
7220 nM: TGI [30]
> 41000 nM: TGI [54]
> 100000 nM: TGI [1] | TGI [2] | TGI [3] | TGI [5] | TGI [6] | TGI [8] | TGI [9] | TGI [10] | TGI [11] | TGI [12] | TGI [13] | TGI [14] | TGI [15] | TGI [18] | TGI [20] | TGI [21] | TGI [22] | TGI [23] | TGI [24] | TGI [25] | TGI [27] | TGI [28] | TGI [31] | TGI [32] | TGI [33] | TGI [34] | TGI [36] | TGI [38] | TGI [39] | TGI [40] | TGI [41] | TGI [44] | TGI [45] | TGI [46] | TGI [47] | TGI [48] | TGI [51] | TGI [52] | TGI [53] | TGI [56] | TGI [57]
active: GI50 [2] 359 nM | GI50 [4] 305 nM | GI50 [5] 395 nM | GI50 [6] 419 nM | GI50 [11] 317 nM | GI50 [14] 404 nM | GI50 [15] 340 nM | GI50 [21] 381 nM | GI50 [23] 332 nM | GI50 [24] 364 nM | GI50 [25] 371 nM | GI50 [26] 283 nM | GI50 [29] 407 nM | GI50 [31] 336 nM | GI50 [32] 334 nM | GI50 [37] 426 nM | GI50 [39] 363 nM | GI50 [40] 385 nM | GI50 [41] 370 nM | GI50 [42] 229 nM | GI50 [43] 410 nM | GI50 [45] 395 nM | GI50 [47] 383 nM | GI50 [48] 415 nM | GI50 [49] 283 nM | GI50 [50] 202 nM | GI50 [51] 379 nM | GI50 [52] 390 nM | GI50 [55] 314 nM | GI50 [57] 335 nM
998 nM: TGI [55]
530 nM: TGI [42]
4720 nM: TGI [29]
2190 nM: TGI [26]
592 nM: TGI [50]
> 23700 nM: TGI [19]
